Molecular target: T1, HDAC6 enzyme (Homo sapiens, UniProt Q9UBN7)
T1 construct: transducing full length HDAC6 gene into Sf-9 insect cells; GST; purchased SignalChem; host or cells: Sf-9 insect cells
T1 sequence (Q9UBN7 1-1215): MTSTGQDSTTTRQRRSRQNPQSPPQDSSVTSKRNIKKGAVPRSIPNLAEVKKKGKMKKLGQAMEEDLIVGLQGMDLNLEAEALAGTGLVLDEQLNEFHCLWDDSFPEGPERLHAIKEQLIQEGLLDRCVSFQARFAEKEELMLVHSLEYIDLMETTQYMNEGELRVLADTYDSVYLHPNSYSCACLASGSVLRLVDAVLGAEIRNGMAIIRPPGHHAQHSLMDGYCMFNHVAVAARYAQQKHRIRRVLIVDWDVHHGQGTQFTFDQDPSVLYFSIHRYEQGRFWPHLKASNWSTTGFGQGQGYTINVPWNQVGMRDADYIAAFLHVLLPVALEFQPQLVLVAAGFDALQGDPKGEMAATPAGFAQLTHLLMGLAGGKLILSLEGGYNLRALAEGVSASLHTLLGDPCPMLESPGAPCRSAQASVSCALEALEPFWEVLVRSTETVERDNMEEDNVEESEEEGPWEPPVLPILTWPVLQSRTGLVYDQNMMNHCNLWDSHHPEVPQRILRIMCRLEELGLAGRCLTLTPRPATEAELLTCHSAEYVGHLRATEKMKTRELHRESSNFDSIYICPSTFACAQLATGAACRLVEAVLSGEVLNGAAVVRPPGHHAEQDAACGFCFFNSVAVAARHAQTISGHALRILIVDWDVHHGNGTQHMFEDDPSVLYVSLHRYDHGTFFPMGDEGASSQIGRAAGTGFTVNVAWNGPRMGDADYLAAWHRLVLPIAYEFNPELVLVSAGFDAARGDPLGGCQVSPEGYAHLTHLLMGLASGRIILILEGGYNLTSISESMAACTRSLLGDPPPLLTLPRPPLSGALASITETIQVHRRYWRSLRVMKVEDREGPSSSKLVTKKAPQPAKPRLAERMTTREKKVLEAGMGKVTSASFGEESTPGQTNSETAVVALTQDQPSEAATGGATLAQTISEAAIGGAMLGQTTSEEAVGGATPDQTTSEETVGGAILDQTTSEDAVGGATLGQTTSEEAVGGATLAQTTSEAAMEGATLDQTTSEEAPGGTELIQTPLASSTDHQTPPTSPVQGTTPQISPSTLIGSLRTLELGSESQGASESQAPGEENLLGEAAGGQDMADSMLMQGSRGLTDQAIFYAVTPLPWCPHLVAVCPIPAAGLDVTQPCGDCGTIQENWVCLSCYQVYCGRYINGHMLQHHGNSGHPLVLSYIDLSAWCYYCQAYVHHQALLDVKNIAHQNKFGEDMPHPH
Assay: HDAC6 enzyme inhibitory activity (HDAC-Glo I/II Assay kit)
Assay type: biochemical
Settings: 10 μM; wells without enzyme = 100% inhibition; read-out: HDAC6 inhibitory rate (%) (10 μM)
Procedure, shortened: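 Inhibition is calculated as relative activity, taking luminescence in enzyme-free wells as complete inhibition. The enzyme, full-length and GST-purified after Sf-9 expression, was exposed to compound for 60 min at room temperature before a 20 min HDAC-Glo reaction.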

| SMILES | inhibition at 10 µM |
| --- | --- |
| O=C1c2cc(-c3nnc(C(F)F)o3)ccc2CN1[C@@H]1CCCC[C@H]1c1nc(C2CC2)no1 (racemic) [Example 561, 2-((1RS,2RS)-2-(3-cyclopropyl-1,2,4-oxadiazol-5-yl)cyclohexyl)-6-(5-(difluoromethyl)-1,3,4-oxadiazol-2-yl)isoindolin-1-one] | 100% |
| O=C1c2cc(-c3nnc(C(F)F)o3)cnc2CN1[C@@H]1COCC[C@H]1Oc1ccc(F)cc1F [Example 655, 1,5-anhydro-2,4-dideoxy-2-(3-(5-(difluoromethyl)-1,3,4-oxadiazol-2-yl)-5-oxo-5,7-dihydro-6H-pyrrolo[3,4-b]pyridin-6-yl)-3-O-(2,4-difluorophenyl)-threo-pentitol] | 96% |
| CC(F)(F)C(=O)N[C@@H]1CCC(F)(F)C[C@H]1N1Cc2ncc(-c3nnc(C(F)F)o3)cc2C1=O [Example 643] | 100% |
| O=C1c2cc(-c3nnc(C(F)F)o3)ccc2CN1C[C@H]1CCCCN1C(=O)C1CC1 [Example 42, 2-(((2R)-1-(cyclopropylcarbonyl)piperidin-2-yl)methyl)-6-(5-(difluoromethyl)-1,3,4-oxadiazol-2-yl)isoindolin-1-one] | 98% |
| CC(F)(F)C(=O)N[C@H]1CC(F)(F)CC[C@H]1N1Cc2ccc(-c3nnc(C(F)F)o3)cc2C1=O [Example 516, N-((1S,2R)-2-(6-(5-(difluoromethyl)-1,3,4-oxadiazol-2-yl)-1-oxo-1,3-dihydro-2H-isoindol-2-yl)-5,5-difluorocyclohexyl)-2,2-difluoropropanamide] | 100% |
| O=C1c2cc(-c3nnc(C(F)F)o3)cnc2CN1Cc1ccccc1C(F)(F)F [Example 339, 3-(5-(difluoromethyl)-1,3,4-oxadiazol-2-yl)-6-(2-(trifluoromethyl)benzyl)-6,7-dihydro-5H-pyrrolo[3,4-b]-pyridin-5-one] | 96% |
| O=C1c2cc(-c3nnc(C(F)F)o3)ccc2CN1[C@H]1CCCN(C(=O)C(F)(F)C(F)(F)F)[C@@H]1c1ccc(F)cc1 (racemic) [Example 577, 6-(5-(difluoromethyl)-1,3,4-oxadiazol-2-yl)-2-((2RS,3SR)-2-(4-fluorophenyl)-1-(2,2,3,3,3-pentafluoropropanoyl)piperidin-3-yl)isoindolin-1-one] | 97% |
| O=C(CCC(F)(F)F)N[C@@H]1CCCC[C@H]1N1Cc2ccc(-c3nnc(C(F)F)o3)cc2C1=O [Example 65, N-((1R,2R)-2-(6-(5-(difluoromethyl)-1,3,4-oxadiazol-2-yl)-1-oxo-1,3-dihydro-2H-isoindol-2-yl)cyclohexyl)-4,4,4-trifluorobutanamide] | 100% |
| Cn1ccc(CN2Cc3ncc(-c4nnc(C(F)F)o4)cc3C2=O)n1 [Example 419, 3-(5-(difluoro-methyl)-1,3,4-oxadiazol-2-yl)-6-((1-methyl-1H-pyrazol-3-yl)methyl)-6,7-dihydro-5H-pyrrolo[3,4-b] pyridin-5-one] | 99% |
| O=C1c2cc(-c3nnc(C(F)F)o3)ccc2CN1c1ccccc1-c1cc(F)ccc1F [Example 309, 2-(2′,5′-difluorobiphenyl-2-yl)-6-(5-(difluoromethyl)-1,3,4-oxadiazol-2-yl)isoindolin-1-one] | 97% |
| O=C(N[C@@H]1CCCC[C@H]1N1Cc2ccc(-c3nnc(C(F)F)o3)cc2C1=O)C1CC1(F)F (stereo partly drawn) [Example 74, N-((1R,2R)-2-(6-(5-(difluoromethyl)-1,3,4-oxadiazol-2-yl)-1-oxo-1,3-dihydro-2H-isoindol-2-yl)cyclohexyl)-2,2-difluorocyclopropanecarboxamide (optical isomer)] | 102% |
| O=C1c2cc(-c3nnc(C(F)F)o3)ccc2CN1[C@@H]1CCOC[C@@H]1NCC(F)(F)F [Example 415, 6-(5-(difluoro-methyl)-1,3,4-oxadiazol-2-yl)-2-((3R,4R)-3-((2,2,2-trifluoro-ethyl)amino)tetrahydro-2H-pyran-4-yl) isoindolin-1-one] | 101% |

From patent publication US10435399B2, “HDAC6 inhibitory heterocyclic compound” (TAKEDA PHARMACEUTICAL COMPANY LIMITED, priority 2017, dated 2019)
